This note sets out measurements from US4327097A, “Novel penicillins” (Toyama Chemical Co., Ltd., priority 1974, dated 1982).

Converted amounts (≈) assume the structure as drawn.

One assay deals with Escherichia coli NIHJ. The experiment in a line: MIC, plate method, standard strains. Format: cell-based. The following applies: Table 4, standard strain; unit assumed. In short, it runs like this:
(§1)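 Test compound was incorporated into Heart infusion agar at pH 7.4, plates were inoculated with 10^4 cells each (suspension at 10^6 cells/ml), and the minimum inhibitory concentration was recorded.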

The subject of another assay is Klebsiella pneumoniae. The experiment in a line: MIC, plate method, standard strains. It is filed as cell-based. The following applies: Table 4, standard strain; unit assumed. In short, it runs like this: as §1
The next assay concerns Proteus vulgaris 3027. The experiment in a line: MIC, plate method, standard strains. It is filed as cell-based. The following applies: Table 4, standard strain; unit assumed. In short, it runs like this:
as §1

The test system of assay [1] is Pseudomonas aeruginosa I.F.O. The experiment in a line: MIC, plate method, standard strains. Format: cell-based. The following applies: Table 4, standard strain; unit assumed. In short, it runs like this:
as §1

Assay [2] deals with Staphylococcus aureus 209p. Put plainly: MIC, plate method, standard strains. Format: cell-based. The note with it: Table 4, standard strain; unit assumed. In a few lines:
as §1

Assay [3] deals with β-lactamase, Escherichia freundii GN 346 (Citrobacter freundii, UniProt Q46041). The experiment in a line: Resistant activity against β-lactamase, iodometric assay. Format: biochemical. The note with it: control Cephalorizine = 100. The method, then:
(§2) (4) Resistant activity of each cephalosporin compound against β-lactamase, Proteus vulgaris GN 76 and Escherichia freundii GN 346:
(§3) The resistant activity of each cephalosporin compound against β-lactamase was measured in the manner described below.
(§4) β-lactamase was prepared from Proteus vulgaris GN 76 and Escherichia freundii GN 346. 10 ml of an overnight culture in Heart Infusion broth was diluted with 100 ml of a medium containing 2 g of yeast extract, 10 g of polypeptone, 2 g of glucose, 7 g of disodium hydrogen phosphate, 2 g of potassium dihydrogen phosphate, 1.2 g of ammonium sulfate and 0.4 g of magnesium sulfate, per liter, and incubated with shaking at 37° C. After incubation of 2 hrs, Penicillin G (50 μg/ml) was added as the inducer, and further incubated for 2 hrs. The resulting cells were collected by centrifugation (5,000 r.p.m.×10 min.) and washed two times with 0.1 M phosphate buffer (pH 7.0). Subsequently, the cells were subjected to sonication (20 KHz, 5 min.) and then centrifuged at 15,000 r.p.m. for 60 min. By using the supernatant of enzyme fluid, the stability of each compound against β-lactamase was determined by the iodometric assay method. Each numeral shown in Table 7-2 is a relative activity value calculated by assuming as 100 the activity of the control Cephalorizine.

Assay [4] concerns the target T1, β-lactamase, Proteus vulgaris GN 76 (Proteus vulgaris, UniProt P52664).
T1 construct: By using the supernatant of enzyme fluid; endogenous in cells; host or cells: Proteus vulgaris GN 76 (penicillin G-induced cells, sonicated, 15,000 r.p.m. supernatant)
The description is as above. The note with it: control Cephalorizine = 100. Format: biochemical. How it is done:
as §2, §3, §4

T1 sequence (P52664 30-300): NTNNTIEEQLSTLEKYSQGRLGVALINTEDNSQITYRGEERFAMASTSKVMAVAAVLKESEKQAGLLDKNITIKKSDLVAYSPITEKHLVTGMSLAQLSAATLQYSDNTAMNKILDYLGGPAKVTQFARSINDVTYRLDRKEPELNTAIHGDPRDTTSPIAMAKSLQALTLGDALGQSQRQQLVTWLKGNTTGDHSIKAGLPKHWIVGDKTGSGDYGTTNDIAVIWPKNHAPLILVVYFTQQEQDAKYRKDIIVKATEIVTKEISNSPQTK
β-lactamase, Escherichia freundii GN 346, sequence (Q46041 entry or part of it): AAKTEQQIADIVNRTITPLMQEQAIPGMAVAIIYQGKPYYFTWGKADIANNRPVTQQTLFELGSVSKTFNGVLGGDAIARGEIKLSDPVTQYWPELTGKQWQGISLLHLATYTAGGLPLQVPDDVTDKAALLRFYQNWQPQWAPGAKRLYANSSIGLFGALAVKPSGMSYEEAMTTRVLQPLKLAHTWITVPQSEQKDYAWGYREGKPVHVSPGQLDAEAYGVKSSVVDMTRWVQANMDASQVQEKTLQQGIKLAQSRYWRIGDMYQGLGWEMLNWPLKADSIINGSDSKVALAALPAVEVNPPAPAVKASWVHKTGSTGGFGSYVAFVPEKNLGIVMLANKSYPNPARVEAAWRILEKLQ

Turning to `CCN1CCN(C(=O)NC(C(=O)NC2C(=O)N3C(C(=O)O)=C(COC(C)=O)CSC23)c2ccc(O)cc2)C(=O)C1=O` (single isomer, unassigned) [Compound No. 81], the MIC Escherichia coli NIHJ with Escherichia coli NIHJ is less than 1.57 µg/mL. Further, the MIC Klebsiella pneumoniae against Klebsiella pneumoniae was less than 1.57 µg/mL. Also, the MIC Proteus vulgaris 3027 against Proteus vulgaris 3027 was less than 1.57 µg/mL. Also, in assay [1], the MIC Pseudomonas aeruginosa I.F.O. turned out to be 12.5 µg/mL (≈ 21.2 µM). Further, the MIC Staphylococcus aureus 209p in assay [2] is less than 1.57 µg/mL. In addition, in assay [3], the “Relative activity (%) against β-lactamase, E. freundii GN 346” value (“Relative activity (%) … E. freundii GN 346” below) worked out at 0.4%. Moreover, in assay [4], the “Relative activity (%) against β-lactamase, Pr. vulgaris GN 76” value (“Relative activity (%) … Pr. vulgaris GN 76” below) amounted to 6%.
For the compound `CCN1CCN(C(=O)NC(C(=O)NC2C(=O)N3C(C(=O)O)=C(CSc4nnc(C)s4)CSC23)c2ccc(O)cc2)C(=O)C1=O` (single isomer, unassigned) [Compound No. 76], the MIC Escherichia coli NIHJ with Escherichia coli NIHJ is less than 0.4 µg/mL. In the assay with Klebsiella pneumoniae, this compound gave an MIC Klebsiella pneumoniae of 0.79 µg/mL (≈ 1.19 µM). Besides, in the assay on Proteus vulgaris 3027, the MIC Proteus vulgaris 3027 came to 3.13 µg/mL (≈ 4.73 µM). In addition, the MIC Pseudomonas aeruginosa I.F.O. in assay [1] worked out at 50 µg/mL (≈ 75.6 µM). In assay [2], this compound gave an MIC Staphylococcus aureus 209p of 1.57 µg/mL (≈ 2.37 µM). For the same compound, the “Relative activity (%) … E. freundii GN 346” value in assay [3] is reported as 1%. The “Relative activity (%) … Pr. vulgaris GN 76” value in assay [4] worked out at 11%.
In the assay on Escherichia coli NIHJ, `CCN1CCN(C(=O)NC(C(=O)NC2C(=O)N3C(C(=O)O)=C(COC(N)=O)CSC23)c2ccc(O)cc2)C(=O)C1=O` (single isomer, unassigned) [Compound No. 84] showed an MIC Escherichia coli NIHJ of less than 1.57 µg/mL. For the same compound, the MIC Klebsiella pneumoniae against Klebsiella pneumoniae is less than 1.57 µg/mL. Further, the MIC Proteus vulgaris 3027 with Proteus vulgaris 3027 is less than 1.57 µg/mL. In assay [1], this compound registered an MIC Pseudomonas aeruginosa I.F.O. of 25 µg/mL (≈ 42.3 µM). In addition, in assay [2], the MIC Staphylococcus aureus 209p is less than 1.57 µg/mL. In assay [3], the “Relative activity (%) … E. freundii GN 346” value is 1%. Also, the “Relative activity (%) … Pr. vulgaris GN 76” value in assay [4] came to 10%.
